Experimental data from patent publication US20130344026A1, “Dimeric Smac Mimetics” (priority 2009, published 2013).
Where two headings read alike, the source gives them in different places.

Legend:
[1] = test system: HCC461; assay: cell viability assay in HCC461, compound alone; format: cell-based
[2] = test system: PANC-1 cells; assay: cell viability assay in PANC-1 cells (compound alone, + 100 ng/ml TNFa, + 300 ng/ml TRAIL); format: cell-based
[3] = HCC461, Tables 15-18, read-out: IC50 (uM) in cell viability assay in HCC461
[4] = HCC461, HCC461, Tables 6-9, read-out: IC50 (μM) in cell viability assay in HCC461
[5] = Homo sapiens, PANC-1 cells, compound alone, read-out: IC50 (uM) in cell viability assay in PANC-1 cells, Cmpnd alone
[6] = PANC-1 cells, + 100 ng/ml TNFa, read-out: IC50 (uM) in cell viability assay in PANC-1 cells, Cmpnd + 100 ng/ml TNFa
[7] = PANC-1 cells, + 300 ng/ml TRAIL, read-out: IC50 (uM) in cell viability assay in PANC-1 cells, Cmpnd + 300 ng/ml TRAIL
[8] = Homo sapiens, PANC-1, compound alone, Tables 15-18, read-out: IC50 (uM) in cell viability assay in PANC-1 cells: Cmpnd alone
[9] = with 100 ng/ml TNFa, Tables 15-18, read-out: IC50 (uM) in cell viability assay in PANC-1 cells: Cmpnd + 100 ng/ml TNFa
[10] = with 300 ng/ml TRAIL, Tables 15-18, read-out: IC50 (uM) in cell viability assay in PANC-1 cells: Cmpnd + 300 ng/ml TRAIL

## CN[C@@H](C)C(=O)N[C@H](C(=O)N1C[C@@H](NC(=O)c2ccc(CNC(=O)CCC(=O)NCc3ccc(C(=O)N[C@H]4C[C@@H](C(=O)NC5CCCc6ccccc65)N(C(=O)[C@@H](NC(=O)[C@H](C)NC)C(C)(C)C)C4)cc3)cc2)C[C@H]1C(=O)NC1CCCc2ccccc21)C(C)(C)C (single isomer, unassigned) [Compound P3-70]
[1]; HCC461, HCC461 cells, compound alone, read-out: IC50 (uM) in cell viability assay in HCC461
  IC50: 0.06 µM

## CN[C@@H](C)C(=O)N[C@H](C(=O)N1CCC[C@H]1C(=O)N[C@H](CNC(=O)C1CCCCC1C(=O)NC[C@@H](NC(=O)[C@@H]1CCCN1C(=O)[C@@H](NC(=O)[C@H](C)NC)C(C)(C)C)C1CCCCC1)C1CCCCC1)C(C)(C)C (single isomer, unassigned) [Compound P4-2]
[1]; [3]
  IC50: 0.12 µM

## CN[C@@H](C)C(=O)N[C@H](C(=O)N1CCC[C@H]1C(=O)N[C@H](CNC(=O)C1CCCCC1C(=O)NC[C@@H](NC(=O)[C@@H]1CCCN1C(=O)[C@@H](NC(=O)[C@H](C)NC)C(C)(C)C)C1CCCCC1)C1CCCCC1)C(C)(C)C (single isomer, unassigned) [Compound P4-3]
[1]; [3]
  IC50: 0.03 µM

## CN[C@@H](C)C(=O)N[C@H](C(=O)N1CCC[C@H]1C(=O)N[C@H](CNC(=O)C1CCCC(C(=O)NC[C@@H](NC(=O)[C@@H]2CCCN2C(=O)[C@@H](NC(=O)[C@H](C)NC)C(C)(C)C)C2CCCCC2)C1)C1CCCCC1)C(C)(C)C (single isomer, unassigned) [Compound P4-4]
[1]; [3]
  IC50: 0.004 µM

## CN[C@@H](C)C(=O)N[C@H](C(=O)N1CCC[C@H]1C(=O)N[C@H](CNC(=O)C1CCCC(C(=O)NC[C@@H](NC(=O)[C@@H]2CCCN2C(=O)[C@@H](NC(=O)[C@H](C)NC)C(C)(C)C)C2CCCCC2)C1)C1CCCCC1)C(C)(C)C (single isomer, unassigned) [Compound P4-5]
[1]; [3]
  IC50: 0.011 µM

## CN[C@@H](C)C(=O)N[C@@H](CC#CC#CC[C@H](NC(=O)[C@H](C)NC)C(=O)N1CCCC[C@H]1C(=O)N[C@@H]1CCCc2ccccc21)C(=O)N1CCCC[C@H]1C(=O)N[C@@H]1CCCc2ccccc21 [Compound 87]
[1]; [4]
  IC50: 0.404 µM

## CN[C@@H](C)C(=O)N[C@@H](CC#CC#CC[C@H](NC(=O)[C@H](C)NC)C(=O)N1CSC[C@H]1C(=O)N[C@@H]1CCCc2ccccc21)C(=O)N1CSC[C@H]1C(=O)N[C@@H]1CCCc2ccccc21 [Compound 88]
[1]; [4]
  IC50: 0.188 µM

## CN[C@@H](C)C(=O)N[C@@H](CC#CC#CC[C@H](NC(=O)[C@H](C)NC)C(=O)N1CC=C[C@H]1C(=O)N[C@@H]1CCCc2ccccc21)C(=O)N1CC=C[C@H]1C(=O)N[C@@H]1CCCc2ccccc21 [Compound 89]
[1]; [4]
  IC50: 0.414 µM

## CN[C@@H](C)C(=O)NC(C(=O)N1C[C@@H](NC(=O)c2cc(NC(=O)OCc3ccc([N+](=O)[O-])cc3)cc(C(=O)N[C@H]3C[C@@H](C(=O)N[C@@H]4CCCc5ccccc54)N(C(=O)[C@@H](NC(=O)[C@H](C)NC)C(C)(C)C)C3)c2)CC1C(=O)N[C@@H]1CCCc2ccccc21)C(C)(C)C (stereo partly drawn) [Compound 110]
[1]; [4]
  IC50: 0.059 µM

## C[C@H](NC(=O)OCc1ccc([N+](=O)[O-])cc1)C(=O)NC(C(=O)N1C[C@@H](NC(=O)c2cccc(C(=O)N[C@H]3C[C@@H](C(=O)N[C@@H]4CCCc5ccccc54)N(C(=O)[C@@H](NC(=O)[C@H](C)NC(=O)OCc4ccc([N+](=O)[O-])cc4)C(C)(C)C)C3)c2)CC1C(=O)N[C@@H]1CCCc2ccccc21)C(C)(C)C (stereo partly drawn) [Compound 111]
[1]; HCC461, Tables 6-9, read-out: IC50 (μM) in cell viability assay in HCC461
  IC50: > 30 µM

## CN[C@@H](C)C(=O)N[C@H](C(=O)N1C[C@@H](Oc2cccc(C#CC#Cc3cccc(O[C@H]4C[C@@H](C(=O)N[C@@H]5CCCc6ccccc65)N(C(=O)[C@@H](NC(=O)[C@H](C)NC)C(C)(C)C)C4)c3)c2)C[C@H]1C(=O)N[C@@H]1CCCc2ccccc21)C(C)(C)C [Compound P3-103]
[2]; [5]
  IC50: > 1 µM
[2]; [6]
  IC50: 0.0316 µM
[2]; [7]
  IC50: 0.037 µM

## CN[C@@H](C)C(=O)N[C@H](C(=O)N1C[C@@H](Oc2cccc(CCCCc3cccc(O[C@H]4C[C@@H](C(=O)N[C@@H]5CCCc6ccccc65)N(C(=O)[C@@H](NC(=O)[C@H](C)NC)C(C)(C)C)C4)c3)c2)C[C@H]1C(=O)N[C@@H]1CCCc2ccccc21)C(C)(C)C [Compound P3-104]
[2]; [5]
  IC50: > 1 µM
[2]; [6]
  IC50: 0.042 µM
[2]; [7]
  IC50: 0.042 µM

## CN[C@@H](C)C(=O)N[C@H](C(=O)N1C[C@@H](OC(=O)c2cccc(C(=O)O[C@H]3C[C@@H](C(=O)N[C@H]4CCCc5ccccc54)N(C(=O)[C@@H](NC(=O)[C@H](C)NC)C(C)(C)C)C3)c2)C[C@H]1C(=O)N[C@H]1CCCc2ccccc21)C(C)(C)C [Compound P3-105]
[2]; [5]
  IC50: > 1 µM

## C[C@H](N)C(=O)N[C@H](C(=O)N1C[C@@H](NC(=O)c2cccc(C(=O)N[C@H]3C[C@@H](C(=O)N[C@H]4CCCc5ccccc54)N(C(=O)[C@@H](NC(=O)[C@H](C)N)C(C)(C)C)C3)c2)C[C@H]1C(=O)N[C@H]1CCCc2ccccc21)C(C)(C)C [Compound P3-106]
[2]; [5]
  IC50: > 1 µM
[2]; [6]
  IC50: 0.193 µM
[2]; [7]
  IC50: 0.115 µM

## CN[C@@H](C)C(=O)N[C@H](C(=O)N1C[C@@H](NC(=O)c2cc(C(=O)N[C@H]3C[C@@H](C(=O)N[C@H](C)c4ccccc4)N(C(=O)[C@@H](NC(=O)[C@H](C)NC)C(C)(C)C)C3)n(C)n2)C[C@H]1C(=O)N[C@H](C)c1ccccc1)C(C)(C)C [Compound P3-107]
[2]; [5]
  IC50: > 1 µM
[2]; [6]
  IC50: 0.015 µM
[2]; [7]
  IC50: 0.02 µM

## CN[C@@H](C)C(=O)N[C@H](C(=O)N1C[C@@H](NC(=O)c2cc(C(=O)N[C@H]3C[C@@H](C(=O)N[C@H](C)c4ccc(Cl)cc4)N(C(=O)[C@@H](NC(=O)[C@H](C)NC)C(C)(C)C)C3)[nH]n2)C[C@H]1C(=O)N[C@H](C)c1ccc(Cl)cc1)C(C)(C)C [Compound P3-108]
[2]; [5]
  IC50: > 1 µM
[2]; [6]
  IC50: 0.012 µM
[2]; [7]
  IC50: 0.036 µM

## CN[C@@H](C)C(=O)N[C@H](C(=O)N1C[C@@H](N(C)C(=O)c2cc(C(=O)N(C)[C@H]3C[C@@H](C(=O)N[C@H](C)c4ccccc4)N(C(=O)[C@@H](NC(=O)[C@H](C)NC)C(C)(C)C)C3)[nH]n2)C[C@H]1C(=O)N[C@H](C)c1ccccc1)C(C)(C)C [Compound P3-109]
[2]; [5]
  IC50: > 1 µM
[2]; [6]
  IC50: 0.028 µM
[2]; [7]
  IC50: 0.049 µM

## CN[C@@H](C)C(=O)N[C@H](C(=O)N1C[C@@H](NC(=O)c2cc(C(=O)N[C@H]3C[C@@H](C(=O)N[C@H](C)c4ccccc4)N(C(=O)[C@@H](NC(=O)[C@H](C)NC)[C@@H](C)OC)C3)[nH]n2)C[C@H]1C(=O)N[C@H](C)c1ccccc1)[C@@H](C)OC [Compound P3-110]
[2]; [5]
  IC50: > 1 µM
[2]; [6]
  IC50: 0.056 µM
[2]; [7]
  IC50: 0.073 µM

## CN[C@@H](C)C(=O)N[C@H](C(=O)N1CCC[C@H]1CN(CCc1ccccc1)C(=O)C(F)(F)F)[C@@H](C)OCC#CC#CCN(C(=O)[C@H](C)NC)[C@H](C(=O)N1CCC[C@H]1CN(CCc1ccccc1)C(=O)C(F)(F)F)[C@@H](C)O [Compound P4-19]
[2]; [8]
  IC50: > 1 µM
[2]; [9]
  IC50: 0.005 µM
[2]; [10]
  IC50: 0.006 µM

## CN[C@@H](C)C(=O)N[C@H](C(=O)N1CCC[C@H]1CN(CC#CC#CCN(CCc1ccccc1)C[C@@H]1CCCN1C(=O)[C@@H](NC(=O)[C@H](C)NC)C(C)(C)C)CCc1ccccc1)C(C)(C)C [Compound P4-20]
[2]; [8]
  IC50: > 1 µM
[2]; [9]
  IC50: 0.061 µM
[2]; [10]
  IC50: 0.041 µM

## CN[C@@H](C)C(=O)N[C@H](C(=O)N1CCC[C@H]1CN(CCc1ccccc1)C(=O)CCC#CC#CCCC(=O)N(CCc1ccccc1)C[C@@H]1CCCN1C(=O)[C@@H](NC(=O)[C@H](C)NC)C(C)(C)C)C(C)(C)C [Compound P4-21]
[2]; [8]
  IC50: > 1 µM
[2]; [9]
  IC50: 0.151 µM
[2]; [10]
  IC50: 0.175 µM

## CN[C@@H](C)C(=O)N[C@H](C(=O)N1CCC[C@H]1CN(CCCCCCN(CCc1ccccc1)C[C@@H]1CCCN1C(=O)[C@@H](NC(=O)[C@H](C)NC)C(C)(C)C)CCc1ccccc1)C(C)(C)C [Compound P4-22]
[2]; [8]
  IC50: > 1 µM
[2]; [9]
  IC50: 0.022 µM
[2]; [10]
  IC50: 0.04 µM

## CN[C@@H](C)C(=O)N[C@H](C(=O)N1CCC[C@H]1C(=O)N[C@H](COC(=O)c1cccc(C(=O)OC[C@@H](NC(=O)[C@@H]2CCCN2C(=O)[C@@H](NC(=O)[C@H](C)NC)C(C)(C)C)c2ccccc2)c1)c1ccccc1)C(C)(C)C [Compound P4-23]
[2]; [8]
  IC50: > 1 µM
[2]; [9]
  IC50: 0.014 µM
[2]; [10]
  IC50: 0.006 µM

## CN[C@@H](C)C(=O)N[C@H](C(=O)N1CCC[C@H]1c1nc(C(=O)NCCC#CC#CCCNC(=O)c2nc([C@@H]3CCCN3C(=O)[C@@H](NC(=O)[C@H](C)NC)C(C)(C)C)oc2-c2c[nH]c3ccccc23)c(-c2c[nH]c3ccccc23)o1)C(C)(C)C [Compound P4-24]
[2]; [8]
  IC50: > 1 µM

## CN[C@@H](C)C(=O)N[C@H](C(=O)N1CCC[C@H]1c1cc(C(=O)OC)c(-c2cn(CC#CC#CCn3cc(-c4oc([C@@H]5CCCN5C(=O)[C@@H](NC(=O)[C@H](C)NC)C(C)(C)C)cc4C(=O)OC)c4ccccc43)c3ccccc23)o1)C(C)(C)C [Compound P4-25]
[2]; [8]
  IC50: > 1 µM
[2]; [9]
  IC50: 0.0342 µM
[2]; [10]
  IC50: 0.0408 µM

## CN[C@@H](C)C(=O)N[C@H](C(=O)N1CCC[C@H]1c1nc(C(=O)NCCCCCCCCNC(=O)c2nc([C@@H]3CCCN3C(=O)[C@@H](NC(=O)[C@H](C)NC)C(C)(C)C)oc2-c2c[nH]c3ccccc23)c(-c2c[nH]c3ccccc23)o1)C(C)(C)C [Compound P4-26]
[2]; [8]
  IC50: > 1 µM
[2]; [9]
  IC50: 0.0007 µM
[2]; [10]
  IC50: 0.0007 µM

## CN[C@@H](C)C(=O)N[C@H](C(=O)N1CCC[C@H]1c1cc(C(=O)OC)c(-c2cn(CCCCCCn3cc(-c4oc([C@@H]5CCCN5C(=O)[C@@H](NC(=O)[C@H](C)NC)C(C)(C)C)cc4C(=O)OC)c4ccccc43)c3ccccc23)o1)C(C)(C)C [Compound P4-27]
[2]; [8]
  IC50: > 1 µM
[2]; [9]
  IC50: 0.0243 µM
[2]; [10]
  IC50: 0.0294 µM
